Data from ChEMBL document CHEMBL1201862, “PubChem BioAssay data set” (2004).
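In this assay, cells in 96-well plates receive the compound at five concentrations for 48 hours. Endpoints are linearly interpolated between the surrounding concentrations. GI50 marks 50% less growth.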 Calls of active or inactive are those of the source. Cut-off read from the data, not from the text of the source: active = GI50 up to about 1.1 µM and inactive = higher. Where a SMILES comes first, the peptide text is derived from it. [ ]: non-standard residue; d: D form. The star is where a group is joined. Bn2Val = CC(C)[C@@H](C(=O)*)N(Cc1ccccc1)Cc1ccccc1; NH(4-F-benzyl) = Fc1ccc(CN*)cc1; NMeV = CN[C@H](C(=O)O)C(C)C; dNMeA = CN[C@H](C)C(=O)O

Tests used:
Assay in all cases: NCI-60 cell line screen, 48 h
[1] = test system: A498
[2] = test system: A549
[3] = test system: HCT-116
[4] = test system: HL-60
[5] = test system: HOP-62
[6] = test system: IGROV-1
[7] = test system: KM12
[8] = test system: LOX IMVI
[9] = test system: MCF7
[10] = test system: MDA-MB-231
[11] = test system: MDA-MB-435
[12] = test system: MOLT-4
[13] = test system: Malme-3M
[14] = test system: NCI-H23
[15] = test system: NCI/ADR-RES
[16] = test system: OVCAR-5
[17] = test system: OVCAR-8
[18] = test system: SK-MEL-28
[19] = test system: SK-MEL-5
[20] = test system: SK-OV-3

Measured: GI50

Nc1[nH]c(=S)[nH]c(=O)c1/N=N/c1c(Br)cc(S(N)(=O)=O)cc1Br
inactive: [1] > 100 µM | [2] > 100 µM | [3] > 100 µM | [4] > 100 µM | [5] > 100 µM | [6] > 100 µM | [7] > 100 µM | [8] > 100 µM | [9] > 100 µM | [10] > 100 µM | [11] > 100 µM | [12] > 100 µM | [13] > 100 µM | [14] > 100 µM | [15] > 100 µM | [16] > 100 µM | [17] > 100 µM | [18] > 100 µM | [19] > 100 µM | [20] > 100 µM

OC1c2ccccc2CC12Cc1ccccc1C2 (stereo not given)
inactive: [1] > 100 µM | [2] 99.5 µM | [3] 79.4 µM | [4] 74.1 µM | [5] > 100 µM | [6] > 100 µM | [7] > 100 µM | [8] > 100 µM | [9] > 100 µM | [10] > 100 µM | [11] > 100 µM | [12] 24.5 µM | [13] 92.9 µM | [14] > 100 µM | [15] 54.7 µM | [16] > 100 µM | [17] > 100 µM | [18] > 100 µM | [19] 22.6 µM | [20] > 100 µM

CC(C)(C)[Si](C)(C)OCC#C[C@@]1(O)CCCCC1CC(Sc1ccccc1)Sc1ccccc1 (stereo not given in full)
inactive: [1] 16.3 µM | [2] 14.9 µM | [3] 11.8 µM | [4] 18.8 µM | [5] 16.9 µM | [6] 16.1 µM | [7] 21.9 µM | [8] 17.3 µM | [9] 10.2 µM | [10] 16.9 µM | [11] 15.7 µM | [12] 11.6 µM | [13] 16.1 µM | [14] 14.9 µM | [15] 15 µM | [16] 14.2 µM | [17] 16.5 µM | [18] 16.3 µM | [19] 15.7 µM | [20] 15.7 µM

CC(C)[C@H](NC(=O)[C@H](C(C)C)N(Cc1ccccc1)Cc1ccccc1)C(=O)N(C)[C@H](C(=O)N1CCC[C@H]1C(=O)N(C)[C@H](C)C(=O)NCc1ccc(F)cc1)C(C)C (Bn2Val-V[NMeV]P[dNMeA]-{NH(4-F-benzyl)})
inactive: [1] 2.42 µM | [2] 3.3 µM | [3] 2.97 µM | [4] 2.54 µM | [5] 5.47 µM | [6] 3.19 µM | [7] 4.24 µM | [8] 1.85 µM | [9] 2.72 µM | [10] 3.55 µM | [11] 3.67 µM | [12] 2.55 µM | [13] 3.63 µM | [14] 3.82 µM | [15] 4.38 µM | [16] 3.59 µM | [17] 4.01 µM | [18] 7.29 µM | [19] 2.22 µM | [20] 5.35 µM

CC(=O)NCC1(c2ccccc2)CCN(CC2COc3ccccc3O2)CC1 (stereo not given) [ACOXATRINE]
inactive: [1] > 100 µM | [2] > 100 µM | [3] > 100 µM | [4] > 100 µM | [5] > 100 µM | [6] > 100 µM | [7] > 100 µM | [8] 62.2 µM | [9] > 100 µM | [10] > 100 µM | [11] > 100 µM | [12] > 100 µM | [13] > 100 µM | [14] > 100 µM | [15] > 100 µM | [16] > 100 µM | [17] > 100 µM | [18] > 100 µM | [19] > 100 µM | [20] > 100 µM
